Laboratory results as given in patent US10288602B2, “Screening method, a kit, a method of treatment and a compound for use in a method of treatement” (ATROGI AB, priority 2013, dated 2019).

Tests used:
CHO GLUT4 cells = assay: Glucose uptake (3H-2-deoxy-glucose) in CHO GLUT4 cells; format: cell-based, Chinese Hamster; conditions: for mTORC2 activity represented by glucose uptake: CHO GLUT4 cells, reference: cells not contacted
Description: (§1) Glucose uptake was measured in CHO Glut 4 (Chinese Hamster Ovary cells transfected to overexpress GLUT4) and L6-myotubes grown in 12-well plates using ^3H-2-dexoy-glucose as previously described (Nevzorova et al. 2006, Dehvari et al. 2011, Nevzorova et al. 2002) with minor modifications. L6-cells were differentiated for 7-8 days before the experiment, serum-starved over night in media containing 0.5% fatty-acid free BSA and stimulated with test compounds for totally 2 h, unless otherwise stated. The test 3′ compounds used in the experiment were: N-[5-(4,5-dihydro-1H-imidazol-2yl)-2-hydroxy-5,6,7,8-tetrahydro naphthalen-1-yl] methanesulfonamide hydrobromide (A61603), noradrenaline (NA), insulin, oxymetazoline (oxy), and 5-(methylamino)-2-({(2R,3R,6S,8S,9R,11R)-3,9,11-trimethyl-8-[(S)-1-methyl-2-oxo-2-(l H-pyrrol-2-yl)ethyl]-1,7-dioxaspiro[5.5]undec-2-yl}methyl)-1,3-benzoxazole-4-carboxylic acid (also referred to as Calcimycin) (A23187).
(§2) Inhibitors were added 30 min before stimulation. 25 min before the end of the experiment, cells were washed twice in warm PBS and kept in glucose-free DMEM together with the different drugs for 10 min before 50 nM ^3H-2-deoxy-glucose was added for additional 6 minutes. The reaction was terminated by washing the cells in ice-cold PBS three times. Cells were lysed in 0.2 NaOH for 1 h in 60° C. and the radioactivity detected by liquid scintillation (scintillation buffer Emulsifier Safe, Perking Elmer and analysis is a Tri-Carb® 2800TR from Perkin Elmer).

Akt [1] = assay: Western blot of Akt phosphorylation (T308, S473) in CHO GLUT4 cells; format: cell-based, Chinese Hamster; conditions: for Akt p-S473 % basal: CHO GLUT4, 10 min, approximate values from FIG. 6B, insulin, NA, oxy 0.1 μM, A61603 0.01 μM; for Akt activity represented by phosphorylation of Akt: CHO GLUT4 cells, FIG. 6, 10 min, reference: cells not contacted
Description: (§3) L6 myotubes (FIG. 5) and CHO GLUT4 cells (FIG. 6) in 12-well plates were used for western blotting. Cells were serum-starved overnight before experiment. Immunoblotting was performed as previously described (Nevzorova et al. 2006, […] et al. 2011, Nevzorova et al. 2002). Primary antibodies (Akt, phospho-Akt T308, phospho-Akt S473, AS 160, GLUT4, phospho-mTOR […], phospho-mTOR […], raptor, and rictor diluted 1:1000) were all from Cell Signaling Technology, Inc and were detected using a secondary antibody (horseradish peroxidase-linked anti-rabbit IgG, from Cell Signaling Technology, Inc) diluted 1:2000 and measured using enhanced chemiluminescence (ECL, Amersham Biosciences).

L6 myotubes = assay: Glucose uptake (3H-2-deoxy-glucose) in L6 myoblasts and L6 myotubes; format: cell-based; conditions: for glucose uptake in L6 myoblasts and L6 myotubes / mTORC2 activity represented by glucose uptake: FIG. 2; for mTORC2 activity represented by glucose uptake: L6 myoblasts and myotubes, reference: cells not contacted; for effect on GPCR and insulin-stimulated glucose uptake: indinavir 100M
Description: as §1, §2

PIP3 = PIP3 immunofluorescence in permeabilised L6 cells; format: cell-based; conditions: FIG. 3
Description: PIP3 was visualized in permeabilised L6 cells (0.5% Triton X-100 in water, 15 min) blocked with 10% rat serum in TBS overnight at 4° C. Mouse anti-PIP3 conjugated to a biotinylated goat anti-mouse IgM diluted 1:100) was incubated for 1 h at 37° C., cells washed three times (10% rat serum in TBS), secondary antibody added (streptavidin-Alexa Fluor® 488 1:2000 in TBS, 30 min, 37° C.). Slides were mounted with ProLong® Gold antifade reagent (Invitrogen).

Akt [2] = assay: Western blot of Akt phosphorylation (T308, S473) in L6 myotubes; format: cell-based; conditions: for Akt activity represented by phosphorylation of Akt: FIG. 5, 10 min, 30 min, 2 h, reference: cells not contacted
Description: as §3

AS160 = assay: Western blot of AS160 phosphorylation (T642) in L6 myotubes; format: cell-based; conditions: FIG. 7; for Akt activity represented by phophorylation of Akt substrate: AS160 p-T642, L6 myotubes, reference: cells not contacted; for AS160 phosphorylation: L6 myotubes
Description: as §3

mTORC2 = assay: Western blot of mTOR phosphorylation (S2448, S2481) in L6 myotubes; format: cell-based; conditions: for mTORC2 activity represented by phosphorylation of mTORC2: FIG. 13, reference: cells not brought into contact with the compound
Description: as §3

GLUT4 = GLUT4 in plasma membrane (GLUT4 translocation) in L6 myotubes; format: cell-based; conditions: for mTORC2 activity represented by GLUT translocation: FIG. 20, reference: cells not contacted
rat soleus muscle = assay: 3-O-methylglucose uptake in intact rat soleus muscle ex vivo; conditions: 30 min preincubation, then insulin or isoproterenol 1 h; FIG. 11
Description: Soleus muscles were dissected from Sprague-Dawley rats and suspended in Krebs-Henseleit bicarbonate (KHB) buffer (118.5 mM NaCl, 4.7 mM KCl, 1.2 mM KH2PO4, 25 mM NaHCO3, 2.5 mM CaCl2, 1.2 mM MgSO, 5 mM HEPES) in organ baths containing 30 ml KHB containing 5 mM glucose and 15 mM mannitol, bubbled with 95% O2/5% CO2 (pH 7.4) and maintained at 37° C. […] Muscles were rinsed with KHB (20 mM mannitol) for 10 min, then incubated in KHB (8 mM 3-O-methylglucose and 12 mM mannitol with 438 μCi/mmol 3-O-methyl[^3H]glucose (80.2 Ci/mmol; PerkinElmer) and 42 μCi/mmol [^14C] mannitol (58.8 mCi/mmol; PerkinElmer, USA)) for 12 min. Muscles were then rinsed with PBS and frozen in liquid nitrogen, weighed and dissolved in 1 mL of 0.5M NaOH at 60′C. ^3H and ^14C were measured by liquid scintillation counting. Total muscle 3-O-methylglucose and extracellular space were measured as described previously (23). Intracellular 3-O-methylglucose accumulation was calculated by: (Total muscle 3-O-methylglucose)−(extracellular 3-O-methylglucose)=intracellular 3-O-methylglucose. This is then expressed as a rate of 3-O-methylglucose transport per mL of intracellular water per hour.

skeletal muscle = assay: [3H]-2DG glucose uptake in mouse skeletal muscle in vivo; conditions: WT 129sv mice, 10 mg/kg, 10 min before insulin or isoproterenol 1 mg/kg; FIG. 12
Description: After 20 min [^3H]-2DG (130 μCi/kg) was injected. Muscles were sampled 1 h later and lysed in 0.5M NaOH.
Glucose uptake was measured by liquid scintillation counting.

[3] = system: other members of the PI3K/PIKK family; conditions: at up to 1 μM; Garcia-Martinez et al. 2009; cited from earlier work
[4] = Glucose tolerance test in Goto-Kakizaki GK-rats; format: in vivo, rat; conditions: in drinking water 4 days, 60, 90 and 120 minutes after glucose, vs untreated animals, FIG. 21
Description: Goto-Kakizaki GK-rats, showing impaired glucose tolerance form an established model of type 2 diabetes. GK-rats were split into two groups, one of which was treated with the GPCR agonist clenbuterol in the drinking water for 4 days prior to a glucose tolerance test.

[5] = L6 myotubes, FIG. 19, cytochalasin B 10 μM

## Br.CS(=O)(=O)Nc1c(O)ccc2c1CCCC2C1=NCCN1 (centres unmarked) [A61603, N-[5-(4,5-dihydro-1H-imidazol-2yl)-2-hydroxy-5,6,7,8-tetrahydronaphthalen-1-yl] methanesulfonamide hydrobromide]
CHO GLUT4 cells; FIG. 1
  mTORC2 activity represented by glucose uptake: + (1)
Akt [1]
  Akt p-S473 % basal: 135 % basal
  Akt activity represented by phosphorylation of Akt: − (6)

## CCN(CC)CCCCN1c2ccccc2Oc2ccc(Cl)cc21 [Akt inhibitor X]
L6 myotubes; L6 myotubes, inhibitor 10 μM, FIG. 4
  effect on insulin-stimulated glucose uptake: inhibited
L6 myotubes; L6 myotubes, inhibitor 10 μM, isoproterenol, FIG. 4
  effect on GPCR-mediated glucose uptake: not GPCR-mediated glucose uptake

## CO[C@H]1C[C@@H]2CC[C@@H](C)[C@@](O)(O2)C(=O)C(=O)N2CCCC[C@H]2C(=O)O[C@H]([C@H](C)C[C@@H]2CC[C@@H](O)[C@H](OC)C2)CC(=O)[C@H](C)/C=C(\C)[C@@H](O)[C@@H](OC)C(=O)[C@H](C)C[C@H](C)/C=C/C=C/C=C/1C [rapamycin]
L6 myotubes; short term treatment, L6 myotubes, FIG. 14
  effect on insulin mediated or isoproterenol mediated glucose uptake: no effect

## CC(C)NCC(O)c1ccc(O)c(O)c1 (centres unmarked) [isoproterenol]
CHO GLUT4 cells; FIG. 1
  mTORC2 activity represented by glucose uptake: + (1, 2)
L6 myotubes
  glucose uptake in L6 myoblasts and L6 myotubes: increased
  mTORC2 activity represented by glucose uptake: + (1, 2)
PIP3
  PIP3 content: not isoproterenol increased PIP3 content
Akt [2]; L6 myotubes
  Akt activity represented by phosphorylation of Akt: − (5)
AS160
  Akt activity represented by phophorylation of Akt substrate: − (7)
  AS160 phosphorylation: not isoproterenol treatment
mTORC2; FIG. 13
  phosphorylation of mTOR (sites S2448, S2481): phosphorylation only at S2481
mTORC2
  mTORC2 activity represented by phosphorylation of mTORC2: + (13)
GLUT4
  mTORC2 activity represented by GLUT translocation: + (20)

## NC[C@H](O)c1ccc(O)c(O)c1 [noradrenaline]
CHO GLUT4 cells; FIG. 1
  mTORC2 activity represented by glucose uptake: + (1)
  glucose uptake in CHO glut 4: increases
Akt [1]
  Akt p-S473 % basal: 130 % basal
  Akt activity represented by phosphorylation of Akt: − (6)

## insulin
L6 myotubes
  glucose uptake in L6 myoblasts and L6 myotubes: increased
  mTORC2 activity represented by glucose uptake: + (2)
PIP3
  PIP3 content: increased
Akt [2]; L6 myotubes
  Akt activity represented by phosphorylation of Akt: + (5, 6)
Akt [2]; all time points examined, FIG. 5, FIG. 6
  Akt phosphorylation at T308 and S473: increased
Akt [1]
  Akt p-S473 % basal: 170 % basal
  Akt activity represented by phosphorylation of Akt: + (5, 6)
AS160
  Akt activity represented by phophorylation of Akt substrate: + (7)
  AS160 phosphorylation: phosphorylated
mTORC2; FIG. 13
  phosphorylation of mTOR (sites S2448, S2481): phosphorylation of mTOR at both S2448 and S2481
mTORC2
  mTORC2 activity represented by phosphorylation of mTORC2: + (13)
GLUT4
  mTORC2 activity represented by GLUT translocation: + (20)

## Cc1cc(C(C)(C)C)c(O)c(C)c1CC1=NCCN1 [oxymetazoline]
CHO GLUT4 cells; FIG. 1
  mTORC2 activity represented by glucose uptake: + (1)
Akt [1]
  Akt p-S473 % basal: 135 % basal
  Akt activity represented by phosphorylation of Akt: − (6)

## COc1ccc(-c2ccc3c(N4CCOCC4)nc(N4C[C@@H](C)O[C@@H](C)C4)nc3n2)cc1CO [KU0063794]
CHO GLUT4 cells; CHO glut 4, FIG. 10B
  effect on GPCR stimulated glucose-uptake: inhibits
L6 myotubes; L6 myotubes, FIG. 10A
  effect on GPCR stimulated glucose-uptake: inhibits
Akt [2]; 100 nM, L6 myotubes, FIG. 9
  effect on insulin-stimulated Akt phosphorylation at S473: decreased
  effect on insulin-stimulated phosphorylation of Akt at T308: no effect
mTORC2; FIG. 13
  effect on insulin- and GPCR-stimulated mTOR phosphorylation at S2448 and S2481: abolished
GLUT4; FIG. 20
  effect on insulin and GPCR stimulated GLUT4 translocation: significantly inhibits
Rat soleus muscle
  effect on insulin and GPCR stimulated glucose-uptake in intact soleus muscle ex-vivo: inhibits
Skeletal muscle
  effect on insulin and GPCR stimulated glucose-uptake in skeletal muscle in-vivo: inhibits
[3]
  inhibition of other members of the PI3K/PIKK family: does not inhibit

## CC(C)(C)NCC(O)c1cc(Cl)c(N)c(Cl)c1 (centres unmarked) [clenbuterol]
[4]
  blood glucose levels in glucose tolerance test: greatly improved

## O=C(Nc1cccc(Nc2ncc(Br)c(NCCc3cnc[nH]3)n2)c1)N1CCCC1 [BX-912]
Akt [2]; L6 myotubes, FIG. 8
  effect on insulin-mediated T308-Akt phosphorylation: significantly inhibited
Akt [2]; L6 myotubes, insulin, FIG. 8
  effect on S473-Akt phosphorylation: no effect

## C=C1[C@@H](C)[C@H]2[C@H](Cc3ccccc3)NC(=O)[C@]23OC(=O)/C=C/[C@H](O)CCC[C@@H](C)C/C=C/[C@H]3[C@@H]1O [cytochalasin B]
L6 myotubes; L6 myotubes, FIG. 19, cytochalasin B 10 μM, indinavir
  block of basal glucose uptake: ~40%
L6 myotubes; [5]
  effect on GPCR and insulin-stimulated glucose uptake: markedly reduced

## CC(C)(C)NC(=O)[C@@H]1CN(Cc2cccnc2)CCN1C[C@@H](O)C[C@@H](Cc1ccccc1)C(=O)N[C@H]1c2ccccc2C[C@H]1O [indinavir]
L6 myotubes; [5]
  effect on GPCR and insulin-stimulated glucose uptake: markedly reduced
